Source: patent publication US20160303095A1, “METHODS OF TREATING HEPATITIS B VIRUS” (Gilead Sciences, Inc., priority 2015, published 2016)
Like-named read-outs stand apart in the source and are kept apart here.

Legend:
HBV [1] = assay: PHH screening protocol: HBsAg and HBeAg levels by MSD ELISA; type: cell-based, Hepatitis B Virus; conditions: Hepatitis B virus
Experimental: HBV antiviral activity was assessed in primary human hepatocytes (PHH) in a 96-well format. PHH were (Life Technologies, Chicago, 11) plated on collagen coated tissue culture plates using Plating Media containing William's Medium E supplemented with 1% Penicillin/Streptomycin, 4 μg/mL human recombinant insulin, 2 mM glutamax, 15 mM Hepes, 1 μM dexamethasone and 5% fetal bovine serum (Life Technologies, Cat#A12176-01 Life Technologies, Chicago, Ill.). After a 4-hour incubation at 37° C., cells were switched to Maintenance Media (Cat#CM4000-A15564 Life Technologies, Chicago, Ill.) containing William's Medium E supplemented with 0.5% Penicillin/Streptomycin, 6.25 μg/mL human recombinant insulin, 6.25 μg/mL human transferrin, 6.25 ng/mL selenous acid, 1.25 mg/mL bovine serum albumin, 5.35 μg/mL linoleic acid, 2 mM glutamax, 15 mM Hepes, 0.1 μM dexamethasone, 2% fetal bovine serum, and 2% DMSO (Cat#D2650 Sigma, St. Louis, Mo.). On the next day, cells were infected with approximately 500 genome equivalent of selected HBV clinical isolates (21P (GTA), 32P (GTA), 91P (GTA), AD38 (GTD), 65P (GTD) or 30P (GTE); ProteoGenex, Culver City, Calif.) per cell in Maintenance Media supplemented with 4% PEG 8000 (Cat#V3011 Promega, Madison, Wis.). After 24 hour incubation cells were washed three times with William's Medium E and fed with fresh Maintenance Media. Small molecule inhibitors targeting KDMs were serially diluted in Maintenance Media and added to cells at 3 days post infection (p.i.). Media with compounds was replenished every 2-3 days. Media collected on various days was used for determination of HBsAg and HBeAg levels by MSD ELISA, and HBV RNA by qPCR. All data were converted into percentages of the untreated control and non-linear regression was performed to calculate EC50 or CC50 values.

[2] = Alamar Blue cell viability assay; type: cell-based; conditions: human
Experimental: Alamar Blue cell viability reagent (Cat#DAL1100 Life Technologies, Chicago, Ill.) was diluted 1 to 10 in Maintenance Media and added to the cells. Cells were incubated for 4 h at 37° C. and the fluorescence signal, which is proportional to the number of live cells, was read using a fluorimeter with excitation/emission spectra set at 560/590 nm, respectively. Data were converted into percentages of the untreated control and non-linear regression was performed to calculate CC50 values.
PHH were plated in collagen coated tissue culture plates in Plating Media and after 4-hour incubation at 37° C., cells were switched to Maintenance Media. On the next day, the cells were infected with 500 genome equivalents per cell of Genotype-A clinical isolate 21P (ProteoGenex, Culver City, Calif.) in 100 μl Maintenance Media supplemented with 4% PEG 8000 (Cat#V3011 Promega, Madison, Wis.). After an overnight incubation the inoculum was removed and the cells were washed three times with William's Media E and maintained in Maintenance Media. […] Following the transfection, the cells were incubated at 37° C. in a humidified incubator and media was changed every 3-4 days. The assay was terminated on day 14 post infection and cell viability was assessed by Alamar Blue. The collected medium was used for determination of HBsAg and HBeAg levels by MSD ELISA while cells were processed for determination of HBV RNA using qPCR.

HBV [3] = assay: Determination of HBV viral RNA by RT-qPCR in PHH; type: cell-based; conditions: Hepatitis B virus, read-out: HBV RNA EC50
Experimental: Following the Alamar Blue measurement, media was removed and total RNA from the cells was isolated using the RNeasy 96 Kit (Cat#74182 Qiagen, Venlo, Netherlands). […] GAPDH mRNA levels were also measured by RT-qPCR to control for differences in cell number, toxicity, and RNA purification efficiency (Cat#4390849 Life Technologies, Chicago Ill.). HBV mRNA Ct values were normalized using their cognate GAPDH mRNA Ct values by the delta-delta-Ct calculation and then expressed as a percentage of the non-targeting scrambled control.

KDM4E = target: T1, KDM4E (Homo sapiens, UniProt B2RXH2); assay: Biochemical KDM inhibition assay (LANCE), KDM4E; conditions: read-out: Biochemical IC50 KDM 4E
T1 construct: host or cells: Sf9 cells
T1 sequence (B2RXH2 1-506): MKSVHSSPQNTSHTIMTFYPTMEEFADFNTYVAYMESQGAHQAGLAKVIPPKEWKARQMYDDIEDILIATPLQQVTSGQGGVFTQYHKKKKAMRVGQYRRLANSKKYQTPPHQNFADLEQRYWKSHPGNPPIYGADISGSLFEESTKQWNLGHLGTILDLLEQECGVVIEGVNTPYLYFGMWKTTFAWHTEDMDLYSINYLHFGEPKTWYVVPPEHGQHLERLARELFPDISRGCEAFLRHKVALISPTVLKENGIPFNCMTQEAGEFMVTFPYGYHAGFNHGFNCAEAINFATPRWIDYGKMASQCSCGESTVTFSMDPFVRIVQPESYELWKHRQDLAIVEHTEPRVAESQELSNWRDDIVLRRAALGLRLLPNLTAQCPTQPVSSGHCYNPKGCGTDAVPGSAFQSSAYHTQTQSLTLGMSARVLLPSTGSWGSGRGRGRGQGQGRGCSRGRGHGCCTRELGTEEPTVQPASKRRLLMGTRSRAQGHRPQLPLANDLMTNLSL

KDM5D = target: T2, KDM5D (Homo sapiens, UniProt Q9BY66); assay: Biochemical KDM inhibition assay (LANCE), KDM5D; conditions: read-out: Biochemical IC50 KDM 5D
T2 construct: host or cells: Sf9 cells
Experimental: (§1) Representative compounds were characterized for their inhibition of KDM5 using biotinylated histone substrates. Inhibition was measured in vitro (CEREP Poitier, Le Bois l'Evêque, France) following experimental conditions described in Table 2. Briefly, the test compound, reference compound or water (control) was mixed with about 2-20 ng of recombinant, Human enzymes expressed in Sf9 cells in a buffer containing 45 mM Hepes/Tris (pH 7), 5 μM FAS, 100 μM ascorbic acid, 10 μM 2-oxoglutarate, 0.01% Tween 20 and 0.01% BSA. Thereafter, the reaction was initiated by adding the biotin-labeled substrate, and the mixture was incubated for 10-30 min at room temperature. For basal control measurements, the enzyme was omitted from the reaction mixture. Following incubation the reaction was stopped by adding 1 mM EDTA. After 5 min, the anti-methyl histone antibody labeled with europium chelate and the Ulight streptavidine (Perkin Elmer Waltham, Mass.) were added. After 60 min more, the fluorescence transfer was measured at λex=320 nm and λem=620 and λem=665 nm using a microplate reader (Envision, Perkin Elmer) (LANCE). The enzyme activity was determined by dividing the signal measured at λem=665 nm by that measured at 620 nm (ratio).

KDM5A = KDM5A (Homo sapiens, UniProt P29375); assay: Biochemical KDM inhibition assay (LANCE), KDM5A; conditions: read-out: Biochemical IC50 KDM 5A
Experimental: as §1

KDM5B = target: T3, KDM5B (Homo sapiens, UniProt Q9UGL1); assay: Biochemical KDM inhibition assay (LANCE), KDM5B; conditions: read-out: Biochemical IC50 KDM 5B
T3 construct: host or cells: Sf9 cells
Experimental: as §1

H3K4me3 mark = assay: Western blot detection of H3K4me3 in HBV-infected PHHs; type: cell-based, human; conditions: for IC50: Homo sapiens
Experimental: One million primary human hepatocytes (PHH) cells from three different donors were plated in 6 well collagen coated tissue culture plates in 2.5 ml Plating Media containing William's Medium E supplemented with 1% Penicillin/Streptomycin, 4 μg/mL human recombinant insulin, 2 mM glutamax, 15 mM Hepes, 1 μM dexamethasone and 5% fetal bovine serum (Life Technologies, Cat#A12176-01 Life Technologies, Chicago, Ill.) and incubated for 4-hours at 37° C. Following this incubation the media was changed to Maintenance Media (Cat#CM4000-A15564 Life Technologies, Chicago, Ill.) containing William's Medium E supplemented with 0.5% Penicillin/Streptomycin, 6.25 μg/mL human recombinant insulin, 6.25 μg/mL human transferrin, 6.25 ng/mL selenous acid, 1.25 mg/mL bovine serum albumin, 5.35 μg/mL linoleic acid, 2 mM glutamax, 15 mM Hepes, 0.1 μM dexamethasone, 2% fetal bovine serum, and 2% DMSO (Cat#D2650 Sigma, St. Louis, Mo.). The next day, cells were infected with approximately 500 genome equivalents of HBV clinical isolates 21P (GTA) or AD38 (GTD) per cell in Maintenance Media supplemented with 4% PEG 8000. Small molecule inhibitors targeting KDMs were serially diluted in Maintenance Media and added to cells at 3 days post infection (p.i.). Media with compounds was replenished every 2-3 days. Cells were harvested on day 14 p.i. by scraping the monolayer into ice-cold PBS supplemented with 5 mM Sodium Butyrate and concentrated by centrifugation at 1000×g for 5 minutes at 4° C. The cell pellets were washed twice by re-suspension in PBS and concentrated by centrifugation. The cells were lysed by suspension in Triton Extraction Buffer (TEB: PBS containing 0.5% Triton X 100 (v/v), 2 mM phenylmethylsulfonyl fluoride (PMSF), 0.02% (w/v) NaN3) at a cell density of 10^7 cells per ml and incubated on ice for 10 minutes with gentle stirring. Following centrifugation at 500 g for 10 minutes at 4° C., the supernatants were removed and the pellets were washed in 5×10^7 cells per ml TEB buffer and centrifuged as before. The pellets were re-suspended in 0.2N HCl at a cell density of 4×10^7 cells per ml and the histones were acid extracted overnight at 4° C. Samples were centrifuged at 500 g for 10 minutes at 4° C., the supematants were removed and protein content was determined using the Bradford assay. Histones were separated on a 4-20% gradient SDS gel (Mini protean TGX precast gels from BioRad), and blotted to a Hybond C-extra nitrocellulose membrane (Amersham Biosciences, RPN303E). H3K4me3 and total H3 were detected with a mixture of 1° antibodies (Cat#05-745R Millipore and Cat#14269S Cell Signaling) diluted 1:1000 in 5% skimmed milk powder in PBS containing 0.1% Tween. The western blot was washed 3 times in PBS containing 0.1% tween and incubated with 2° antibodies (Donkey anti-Mouse IRDye at 680LT Cat#926-68022 Licor Odyssey; Donkey anti-Rabbit IRDye at 800CW Cat#96-32213; Licor Odyssey) diluted 1:10000 in 5% skimmed milk powder in PBS containing 0.1% tween 20 for 1 h. Detection of infrared fluorescence was performed on Infrared Fluorescence Imaging System LI-COR. Concentration dependence of H3K4me3/H3 signal was used to calculate IC50 value for induction of H3K4 trimethylation.

[4] = read-out: HBeAg EC50, HBV-infected PHH
[5] = read-out: HBsAg EC50, HBV-infected PHH
[6] = primary human hepatocytes (PHH), read-out: PHH CC50

T2 sequence (Q9BY66 whole entry): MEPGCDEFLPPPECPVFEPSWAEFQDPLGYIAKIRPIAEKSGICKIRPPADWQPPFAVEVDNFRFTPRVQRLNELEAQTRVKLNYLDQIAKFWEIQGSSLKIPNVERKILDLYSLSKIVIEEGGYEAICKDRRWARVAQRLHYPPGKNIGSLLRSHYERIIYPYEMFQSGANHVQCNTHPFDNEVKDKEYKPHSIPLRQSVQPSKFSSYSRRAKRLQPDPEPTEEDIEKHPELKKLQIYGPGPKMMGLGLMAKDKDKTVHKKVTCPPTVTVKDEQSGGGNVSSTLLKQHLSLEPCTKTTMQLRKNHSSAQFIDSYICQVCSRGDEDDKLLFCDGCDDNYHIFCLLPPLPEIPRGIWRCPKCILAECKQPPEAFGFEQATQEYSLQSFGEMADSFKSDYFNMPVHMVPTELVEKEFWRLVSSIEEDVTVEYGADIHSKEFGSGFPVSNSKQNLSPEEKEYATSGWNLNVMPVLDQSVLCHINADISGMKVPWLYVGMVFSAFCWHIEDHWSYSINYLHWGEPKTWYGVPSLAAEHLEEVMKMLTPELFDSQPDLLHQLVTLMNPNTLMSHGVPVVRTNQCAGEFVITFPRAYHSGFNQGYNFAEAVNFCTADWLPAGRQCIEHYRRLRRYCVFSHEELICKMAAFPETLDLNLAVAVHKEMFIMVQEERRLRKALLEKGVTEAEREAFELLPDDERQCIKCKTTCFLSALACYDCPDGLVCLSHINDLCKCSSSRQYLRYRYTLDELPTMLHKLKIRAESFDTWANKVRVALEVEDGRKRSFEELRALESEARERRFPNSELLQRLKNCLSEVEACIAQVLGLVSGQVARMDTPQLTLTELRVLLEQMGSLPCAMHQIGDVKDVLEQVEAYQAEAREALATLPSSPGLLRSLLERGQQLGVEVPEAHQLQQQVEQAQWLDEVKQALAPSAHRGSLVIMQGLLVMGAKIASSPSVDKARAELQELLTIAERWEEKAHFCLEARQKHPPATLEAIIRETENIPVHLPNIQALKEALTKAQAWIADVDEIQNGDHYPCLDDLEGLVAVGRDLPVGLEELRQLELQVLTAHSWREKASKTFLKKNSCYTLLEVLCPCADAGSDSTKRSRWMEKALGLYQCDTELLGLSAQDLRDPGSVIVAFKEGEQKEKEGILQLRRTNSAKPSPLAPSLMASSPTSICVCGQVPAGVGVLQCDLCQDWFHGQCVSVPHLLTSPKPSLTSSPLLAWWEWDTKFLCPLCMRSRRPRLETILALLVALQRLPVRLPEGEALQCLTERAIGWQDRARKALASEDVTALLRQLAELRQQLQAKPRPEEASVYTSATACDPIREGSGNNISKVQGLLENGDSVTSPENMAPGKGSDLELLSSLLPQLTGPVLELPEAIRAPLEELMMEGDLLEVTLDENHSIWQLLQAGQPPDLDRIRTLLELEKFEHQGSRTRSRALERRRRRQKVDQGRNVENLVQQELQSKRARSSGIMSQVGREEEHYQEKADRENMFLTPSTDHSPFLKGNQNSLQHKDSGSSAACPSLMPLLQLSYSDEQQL
Chain of KDM5A (P29375 whole entry): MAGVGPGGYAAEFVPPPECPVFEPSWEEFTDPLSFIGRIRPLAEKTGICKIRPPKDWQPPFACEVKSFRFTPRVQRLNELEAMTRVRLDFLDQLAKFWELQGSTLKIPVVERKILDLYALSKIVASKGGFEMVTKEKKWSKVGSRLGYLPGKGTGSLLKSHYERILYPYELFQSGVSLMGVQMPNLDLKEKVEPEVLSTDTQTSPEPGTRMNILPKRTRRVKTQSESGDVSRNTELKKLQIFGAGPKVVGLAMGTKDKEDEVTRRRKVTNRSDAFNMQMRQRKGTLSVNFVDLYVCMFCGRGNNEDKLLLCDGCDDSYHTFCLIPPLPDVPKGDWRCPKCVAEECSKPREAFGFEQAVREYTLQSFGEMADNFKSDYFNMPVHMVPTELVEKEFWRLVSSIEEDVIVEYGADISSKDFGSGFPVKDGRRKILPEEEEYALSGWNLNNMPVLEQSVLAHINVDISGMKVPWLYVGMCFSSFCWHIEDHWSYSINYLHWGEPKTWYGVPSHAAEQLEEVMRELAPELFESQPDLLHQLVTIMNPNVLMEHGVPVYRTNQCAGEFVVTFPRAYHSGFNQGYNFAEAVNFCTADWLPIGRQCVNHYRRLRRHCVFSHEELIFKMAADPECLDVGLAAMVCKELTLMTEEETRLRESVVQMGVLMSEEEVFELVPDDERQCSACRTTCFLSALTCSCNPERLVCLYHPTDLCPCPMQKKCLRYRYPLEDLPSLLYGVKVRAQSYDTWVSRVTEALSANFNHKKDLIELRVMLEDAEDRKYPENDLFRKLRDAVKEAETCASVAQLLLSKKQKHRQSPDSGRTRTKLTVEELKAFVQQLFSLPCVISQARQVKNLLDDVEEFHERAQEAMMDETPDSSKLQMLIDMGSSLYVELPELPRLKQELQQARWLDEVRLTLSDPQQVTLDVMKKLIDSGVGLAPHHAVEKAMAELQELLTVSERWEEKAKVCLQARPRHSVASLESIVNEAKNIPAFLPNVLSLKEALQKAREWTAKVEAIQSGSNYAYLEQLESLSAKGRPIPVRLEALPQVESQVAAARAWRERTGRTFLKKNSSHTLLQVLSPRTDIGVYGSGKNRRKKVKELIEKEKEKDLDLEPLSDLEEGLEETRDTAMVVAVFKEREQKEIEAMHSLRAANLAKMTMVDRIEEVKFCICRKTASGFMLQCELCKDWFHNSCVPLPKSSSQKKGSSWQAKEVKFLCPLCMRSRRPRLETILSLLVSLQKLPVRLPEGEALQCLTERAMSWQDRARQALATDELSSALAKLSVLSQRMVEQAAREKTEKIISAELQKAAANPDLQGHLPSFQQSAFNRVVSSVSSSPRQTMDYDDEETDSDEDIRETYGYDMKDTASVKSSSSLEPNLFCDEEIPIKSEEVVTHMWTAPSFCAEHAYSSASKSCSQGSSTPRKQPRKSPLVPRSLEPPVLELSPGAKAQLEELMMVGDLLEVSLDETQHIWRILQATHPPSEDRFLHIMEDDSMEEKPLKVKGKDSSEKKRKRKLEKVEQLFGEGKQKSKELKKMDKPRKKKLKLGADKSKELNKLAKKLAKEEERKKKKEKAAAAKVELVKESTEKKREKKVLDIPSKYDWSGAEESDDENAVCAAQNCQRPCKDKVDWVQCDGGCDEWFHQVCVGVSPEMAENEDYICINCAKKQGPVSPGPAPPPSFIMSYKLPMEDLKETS
T3 sequence (Q9UGL1 whole entry): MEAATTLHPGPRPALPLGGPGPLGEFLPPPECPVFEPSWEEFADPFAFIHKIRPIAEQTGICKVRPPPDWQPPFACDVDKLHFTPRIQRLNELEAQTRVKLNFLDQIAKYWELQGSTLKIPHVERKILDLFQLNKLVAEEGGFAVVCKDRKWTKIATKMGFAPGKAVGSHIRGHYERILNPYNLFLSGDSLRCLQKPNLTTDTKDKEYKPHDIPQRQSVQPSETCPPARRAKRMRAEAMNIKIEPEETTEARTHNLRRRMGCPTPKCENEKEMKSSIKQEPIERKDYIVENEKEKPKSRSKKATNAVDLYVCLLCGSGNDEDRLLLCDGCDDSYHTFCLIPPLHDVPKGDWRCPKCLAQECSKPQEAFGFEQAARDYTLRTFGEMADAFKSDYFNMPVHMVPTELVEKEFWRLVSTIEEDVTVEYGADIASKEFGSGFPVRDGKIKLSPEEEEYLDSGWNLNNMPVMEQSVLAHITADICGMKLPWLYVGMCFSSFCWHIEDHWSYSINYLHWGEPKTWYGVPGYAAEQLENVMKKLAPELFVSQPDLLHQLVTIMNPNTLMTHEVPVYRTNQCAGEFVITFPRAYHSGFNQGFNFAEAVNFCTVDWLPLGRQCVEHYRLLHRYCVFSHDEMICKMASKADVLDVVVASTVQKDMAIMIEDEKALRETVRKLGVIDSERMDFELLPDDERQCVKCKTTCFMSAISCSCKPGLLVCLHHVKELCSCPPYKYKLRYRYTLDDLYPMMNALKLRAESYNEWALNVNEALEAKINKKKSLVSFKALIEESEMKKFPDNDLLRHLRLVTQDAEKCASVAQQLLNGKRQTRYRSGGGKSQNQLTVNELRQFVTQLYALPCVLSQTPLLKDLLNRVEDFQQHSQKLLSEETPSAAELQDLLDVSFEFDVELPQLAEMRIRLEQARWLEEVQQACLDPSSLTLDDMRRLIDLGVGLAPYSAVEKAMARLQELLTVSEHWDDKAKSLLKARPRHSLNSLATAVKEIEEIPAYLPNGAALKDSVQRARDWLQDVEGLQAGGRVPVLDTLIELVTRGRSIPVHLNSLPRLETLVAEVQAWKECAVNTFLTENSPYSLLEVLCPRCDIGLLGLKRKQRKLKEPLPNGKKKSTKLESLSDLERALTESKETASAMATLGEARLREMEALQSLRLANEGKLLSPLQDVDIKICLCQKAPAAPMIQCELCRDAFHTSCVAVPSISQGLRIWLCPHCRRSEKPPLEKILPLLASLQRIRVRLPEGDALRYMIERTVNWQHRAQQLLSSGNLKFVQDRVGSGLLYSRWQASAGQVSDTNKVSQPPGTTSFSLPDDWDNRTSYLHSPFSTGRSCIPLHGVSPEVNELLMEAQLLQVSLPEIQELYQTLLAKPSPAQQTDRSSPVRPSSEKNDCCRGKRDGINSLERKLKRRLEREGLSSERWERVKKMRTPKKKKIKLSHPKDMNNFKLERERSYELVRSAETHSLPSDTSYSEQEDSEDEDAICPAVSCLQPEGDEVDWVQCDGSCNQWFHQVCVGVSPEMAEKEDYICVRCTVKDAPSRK

## O=C(O)CCNc1cc(N2CCc3ccccc3CC2)nc(-c2ccccn2)n1 [Example 1, GSK-J1, reference compound]
HBV [1]; [4]
  EC50: 8.04 µM
HBV [1]; [5]
  EC50: 22.4 µM
[2]; [6]
  CC50: ≥ 100 µM

## O=C(O)c1ccc(O)c2ncccc12 [Example 2, 8-HQ-5-COOH, reference compound]
HBV [1]; [4]
  EC50: 32 µM
HBV [1]; [5]
  EC50: 45.8 µM

## CCOC(=O)CCNc1cc(N2CCc3ccccc3CC2)nc(-c2ccccn2)n1 [Example 3, GSK-J4, reference compound]
HBV [1]; [4]
  EC50: 3.43 µM
HBV [1]; [5]
  EC50: 28.7 µM
[2]; [6]
  CC50: ≥ 100 µM

## Clc1ccc(N/N=C(\c2ccccc2)c2ccccn2)nc1 [Example 4, JIB-04, reference compound]
HBV [3]; HBV-infected PHH
  EC50: 4.6 µM
HBV [1]; [4]
  EC50: 0.9 µM
HBV [1]; [5]
  EC50: 0.9 µM
[2]
  CC50: ≥ 100 µM

## CN(C)CCCNC(=O)c1ccc(-c2cc(O)c3ncccc3c2)cc1 [Example 5, ML-324, reference compound]
HBV [1]; [4]
  EC50: 34.5 µM
HBV [1]; [5]
  EC50: 38.4 µM
[2]; [6]
  CC50: 69.4 µM

## N[C@H]1C[C@@H]1c1ccc(-c2cccc(O)c2)cc1 [Example 6, OG-L002, reference compound]
HBV [3]
  EC50: 31.6 µM
HBV [1]; [4]
  EC50: 46.7 µM
HBV [1]; [5]
  EC50: 38.3 µM
[2]
  CC50: ≥ 100 µM

## NC1CC1c1cccc(OCC[C@H](NC(=O)c2ccccc2)C(=O)NCc2ccccc2)c1 (some centres unmarked) [Example 10, NCL-1, reference compound]
HBV [1]; [4]
  EC50: 19 µM
HBV [1]; [5]
  EC50: 19.4 µM
[2]
  CC50: 8.12 µM

## O=C(O)c1ccnc(-n2ncc(CCO)c2OCc2ccc(F)cc2)c1 [Example 12]
KDM4E
  IC50: 9.1 µM
KDM5D
  IC50: 6.4 µM
KDM5A
  IC50: 1.6 µM
HBV [1]; [4]
  EC50: 50 µM
HBV [1]; [5]
  EC50: 50 µM
KDM5B
  IC50: 2.7 µM
[2]
  CC50: ≥ 50 µM

## CCN(CCN(C)C)C(=O)CNCc1cc(C=O)ccn1 [Example 15]
H3K4me3 mark; read-out: IC50 (concentration causing a 50% increase in the H3K4me3 mark), Virus 21P (GTA), PHH 8130
  IC50: 0.05 µM
H3K4me3 mark; read-out: IC50 (concentration causing a 50% increase in the H3K4me3 mark), Virus 21P (GTA), PHH 8181
  IC50: 0.03 µM
H3K4me3 mark; read-out: IC50 (concentration causing a 50% increase in the H3K4me3 mark), Virus AD38 (GTD), PHH 4239
  IC50: 0.02 µM
H3K4me3 mark; read-out: IC50 (concentration causing a 50% increase in the H3K4me3 mark), Virus AD38 (GTD), PHH 8130
  IC50: 0.05 µM
H3K4me3 mark; read-out: IC50 (concentration causing a 50% increase in the H3K4me3 mark), Virus AD38 (GTD), PHH 8181
  IC50: 0.04 µM
H3K4me3 mark; PHH from three different donors
  chromatin H3K4Me3 mark: increase in the chromatin H3K4Me3 mark in a dose-dependent manner
HBV [1]; [4]
  EC50: 0.053 µM
HBV [1]; [5]
  EC50: 0.041 µM
[2]
  CC50: ≥ 50 µM

## CCN(CCN(C)C)C(=O)CNCc1cc(/C=N/CCO)ccn1 [Example 16]
HBV [1]; [4]
  EC50: 0.648 µM
HBV [1]; [5]
  EC50: 0.257 µM
[2]
  CC50: ≥ 50 µM
